Assay results from paper PMC5681660, “Reduced hepatitis B and D viral entry using clinically applied drugs as novel inhibitors of the bile acid transporter NTCP” (Scientific Reports, 2017).
Where a name gives a salt, the structure may show the parent alone. Read-outs that look alike come from different tables or passages of the source.

Columns and labels:
[1] = biological target: T1, human NTCP (Homo sapiens, UniProt Q14973); assay: Screening taurocholate uptake assay (96-well, [14C]taurocholate, 10 µM drug)
T1 sequence (Q14973 1-349): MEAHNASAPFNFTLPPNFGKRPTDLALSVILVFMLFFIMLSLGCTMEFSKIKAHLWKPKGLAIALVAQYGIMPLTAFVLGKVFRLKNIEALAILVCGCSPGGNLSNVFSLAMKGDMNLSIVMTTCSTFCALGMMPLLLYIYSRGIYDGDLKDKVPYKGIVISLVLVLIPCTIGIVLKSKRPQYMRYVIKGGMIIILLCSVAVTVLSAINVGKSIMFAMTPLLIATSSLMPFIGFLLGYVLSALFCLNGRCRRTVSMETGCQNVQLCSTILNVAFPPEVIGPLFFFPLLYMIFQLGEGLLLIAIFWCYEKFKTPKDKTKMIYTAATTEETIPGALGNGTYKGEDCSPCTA

[2] = biological target: T1, human NTCP; assay: Screening fluorescent competitive Myrcludex B-FITC binding assay (96-well, 10 µM drug)
[3] = Prestwick library screen, taurocholate uptake, 10 µM drug
[4] = ranking score beside the functional and binding assay B-scores of the screen
[5] = Prestwick library screen, Myrcludex B-FITC binding, 10 µM drug
[6] = Prestwick library screen, 10 µM drug, B-score of taurocholate uptake
[7] = combined ranking from functional and binding assay B-scores
[8] = Prestwick library screen, 10 µM drug, B-score of Myrcludex B-FITC binding
[9] = combined ranking from functional and binding screening assays
[10] = screen, 10 µM drug, taurocholate uptake
[11] = screen, 10 µM drug, Myrcludex B-FITC binding

NS(=O)(=O)c1cc2c(cc1Cl)NC(CC1CCCC1)NS2(=O)=O (stereo not drawn) [Cyclopenthiazide]
B-score functional assay [1, 3]: -0.118
Ranking score [1, 4]: 797.145
B-score binding assay [2, 5]: 2.395

O=P1(N(CCCl)CCCl)NCCCO1 (stereo not drawn) [Cyclophosphamide]
B-score functional assay [1]: 0.493
Ranking score [1]: 990.921
B-score binding assay [2]: 1.227

CN1CCC(=C2c3ccccc3C=Cc3ccccc32)CC1 [Cyproheptadine hydrochloride]
B-score functional assay [1, 3]: -0.111
Ranking score [1, 4]: 690.33
B-score binding assay [2, 5]: 0.492

CC(=O)O[C@]1(C(C)=O)CC[C@H]2[C@@H]3C=C(Cl)C4=CC(=O)[C@@H]5C[C@@H]5[C@]4(C)[C@H]3CC[C@@]21C [Cyproterone acetate]
B-score functional assay [1, 3]: -0.245
Ranking score [1, 4]: 678.19
B-score binding assay [2, 5]: 0.796

Nc1ccn([C@@H]2O[C@H](CO)[C@@H](O)[C@@H]2O)c(=O)n1 [Cytarabine]
B-score functional assay [1, 6]: 0.582
Ranking score [1, 7]: 944.957
B-score binding assay [2, 8]: 0.655

N[C@@H]1CON=C1O [D-cycloserine]
B-score functional assay [1, 3]: -0.174
Ranking score [1, 4]: 667.017
B-score binding assay [2, 5]: 0.464

COc1ccccc1N1CCN(CCCCNC(=O)c2ccc3ccccc3c2)CC1.Cl.Cl [DO 897/99]
Ranking score [1, 9]: 447.929
B-score functional assay [1, 10]: -0.485
B-score binding assay [2, 11]: -0.125

CN(C)/N=N/c1[nH]cnc1C(N)=O [Dacarbazine]
B-score functional assay [1, 6]: 0.084
Ranking score [1, 7]: 928.431
B-score binding assay [2, 8]: 1.762

C#C[C@]1(O)CC[C@H]2[C@@H]3CCC4=Cc5oncc5C[C@]4(C)[C@H]3CC[C@@]21C [Danazol]
Ranking score [1, 9]: 407.041
B-score functional assay [1, 10]: -0.499
B-score binding assay [2, 11]: -0.305

O=C1CN(/N=C/c2ccc(-c3ccc([N+](=O)[O-])cc3)o2)C(=O)[N-]1.[Na+] [Dantrolene sodium salt]
Ranking score [1, 9]: 342.783
B-score functional assay [1, 10]: -0.011
B-score binding assay [2, 11]: -1.319

NC(=O)C(c1ccccc1)(c1ccccc1)[C@@H]1CCN(CCc2ccc3c(c2)CCO3)C1 [Darifenacin hydrobromide]
B-score functional assay [1]: 2.058
Ranking score [1]: 899.12
B-score binding assay [2]: 0.023

COc1cccc2c1C(=O)c1c(O)c3c(c(O)c1C2=O)C[C@@](O)(C(C)=O)C[C@@H]3O[C@H]1C[C@H](N)[C@H](O)[C@H](C)O1 [Daunorubicin hydrochloride]
B-score functional assay [1, 3]: -0.357
Ranking score [1, 4]: 740.439
B-score binding assay [2, 5]: 6.093

N=C(N)N1CCc2ccccc2C1 [Debrisoquin sulfate]
B-score functional assay [1, 6]: 2.382
Ranking score [1, 7]: 932.772
B-score binding assay [2, 8]: 0.059

C[N+](C)(C)CCCCCCCCCC[N+](C)(C)C [Decamethonium bromide]
Ranking score [1, 9]: 433.577
B-score functional assay [1, 10]: -0.848
B-score binding assay [2, 11]: 0.021

CC(=O)OCC(=O)[C@@]12N=C(C)O[C@@H]1C[C@H]1[C@@H]3CCC4=CC(=O)C=C[C@]4(C)[C@H]3[C@@H](O)C[C@@]12C [Deflazacort]
Ranking score [1, 9]: 446.866
B-score functional assay [1, 10]: 0.131
B-score binding assay [2, 11]: -0.898

C[C@H](CCC(=O)O)[C@H]1CC[C@H]2[C@@H]3C(=O)C[C@@H]4CC(=O)CC[C@]4(C)[C@H]3CC(=O)[C@]12C [Dehydrocholic acid]
Ranking score [1, 9]: 309.304
B-score functional assay [1, 10]: -1.555
B-score binding assay [2, 11]: -0.083

CC(=O)O[C@H]1CC[C@@]2(C)C(=CC[C@@H]3[C@@H]2CC[C@]2(C)C(=O)CC[C@@H]32)C1 [Dehydroisoandosterone 3-acetate]
Ranking score [1, 9]: 438.862
B-score functional assay [1, 10]: 0.002
B-score binding assay [2, 11]: -0.747

CN(CCCCCCCCCCN(C)C(=O)Oc1cccc([N+](C)(C)C)c1)C(=O)Oc1cccc([N+](C)(C)C)c1 [Demecarium bromide]
B-score functional assay [1, 6]: 0.13
Ranking score [1, 7]: 853.475
B-score binding assay [2, 8]: 0.623
